Reference: patent US12065445B2, “CDK2 inhibitors and methods of using the same” (Cedilla Therapeutics, Inc., priority 2021, dated 2024)

tested on: Kuramochi cells; test: BrdU Cell Proliferation Assay; format: cell-based; conditions: read-out: BrdU - KURAMOCHI.1: IC50
Experimental: A BrdU assay was used as a measure of proliferation based on the DNA replication process of proliferating cells. BrdU, a pyrimidine analog, is added to the cell culture and incorporated into the DNA of proliferating cells. The presence of the BrdU analog was then measured through a colorimetric ELISA. After fixation and permeabilization of cells, peroxidase-conjugated antibody recognizing BrdU is added and allowed to incubate, followed by thorough washing to remove unbound antibody. In order to quantify the amount of bound antibody, peroxidase substrate is added and produces a color that can be measured at 450 nm.
On day −1, Kuramochi cells (Sekisui XenoTech JCRB0098) were seeded at 2,000 cells/well in columns 2-12 of a 96 well plate (Corning, CLS3596) in 150 μL media and allowed to adhere overnight at 37 degree with 5% CO2.
On day 0, the source plate was prepared by adding 10 mM compounds and performing 3-fold serial dilutions for a 10-point dose response of each compound. Using a multichannel pipette, 2 μL of the contents of the source plate were stamped into an intermediate plate with 500 μL of RPMI 1640 Media, GlutaMAX Supplement (Life Technologies, 61870127) in each well of a Nunc 96 DeepWell™ plate, non-treated 96 DeepWell plate, 2 mL/well, sterile, natural, 60/cs (Sigma Z717274) and mixed thoroughly. 50 μL from each well of this intermediate plate were added to 4 wells of a 96-well plate with previously seeded Kuramochi cells.
On day 4, the plates were developed using the BrdU ELISA Cell Proliferation Assay according to manufacturer's instructions (Roche, 11647229001). Briefly, BrdU was diluted 1:100 in Gibco®, OptiMEM® and 20 μL/well was added, shaken for 10 minutes at 350 rpm, and then returned to the incubator for 1 hour. Following incubation, the medium was discarded, and the cells were fixed by adding 200 μL of Fix/Denature solution. The anti-BrdU peroxidase antibody was diluted 1:1000 in OptiMEM, added at 100 μL/well, and incubated while shaking (350 rpm) for one hour. Three washes with PBS were performed to remove any unbound antibody, followed by the addition of 100 μL of substrate solution to each well. 25 μL/well of 1M sulfuric acid solution was then added to halt the reaction, and plates were read out using an Envision spectrophotometer (Perkin Elmer) set to read 450 nm absorbance. Background absorbance values from empty wells were subtracted from all samples and then normalized to DMSO treated wells.

Compound	IC50 [µM]
CNC(=O)[C@@H](NC(=O)C1CN(C(=O)c2cnn(Cc3ccccc3)c2)CC12CN(C(=O)C1CC1(C)C)C2)[C@@H](C)OCC1CCCCC1 (mixture of isomers) [I-12]	0.5 to 5
C[C@H](CNC(=O)C1CN(C(=O)c2cnn(Cc3ccccc3)c2)CC12CN(C(=O)C1CC1(C)C)C2)OCc1ccccc1 (stereo partly drawn) [I-7]	> 10
C[C@@H](OCc1ccccc1)[C@H](NC(=O)C1CN(C(=O)c2cnn(Cc3ccccc3)c2)CC12CN(C(=O)[C@H]1CC1(C)C)C2)C(=O)O (stereo partly drawn) [I-9, (2S,3R)-2-(6-(1-benzyl-1H-pyrazole-4-carbonyl)-2-((S)-2,2-dimethylcyclopropanecarbonyl)-2,6-diazaspiro[3.4]octane-8-carboxamido)-3-(benzyloxy)butanoic acid]	> 10
CNC(=O)[C@@H](NC(=O)C1CN(C(=O)c2cnn(Cc3cccnc3)c2)CC12CN(C(=O)C1CC1(C)C)C2)[C@@H](C)OCc1ccccc1 (stereo partly drawn) [I-15]	> 10
CNC(=O)[C@@H](NC(=O)[C@@H]1CN(Cc2cnn(Cc3ccccc3)c2)CC12CN(C(=O)[C@H]1CC1(C)C)C2)[C@@H](C)OCc1ccccc1 [I-16A]	> 10
CNC(=O)[C@@H](NC(=O)[C@H]1CN(Cc2cnn(Cc3ccccc3)c2)CC12CN(C(=O)[C@H]1CC1(C)C)C2)[C@@H](C)OCc1ccccc1 [I-16B]	> 10
CNC(=O)[C@@H](NC(=O)[C@@H]1CN(C(=O)c2cnn(CC3CCN(C(C)=O)CC3)c2)CC12CN(C(=O)[C@H]1CC1(C)C)C2)[C@@H](C)OCc1ccccc1 [I-17A]	> 10
CNC(=O)[C@@H](NC(=O)[C@H]1CN(C(=O)c2cnn(CC3CCN(C(C)=O)CC3)c2)CC12CN(C(=O)[C@H]1CC1(C)C)C2)[C@@H](C)OCc1ccccc1 [I-17B]	> 10
CNC(=O)[C@@H](NC(=O)[C@@H]1CN(C(=O)c2cnn(CC3CCNCC3)c2)CC12CN(C(=O)[C@H]1CC1(C)C)C2)[C@@H](C)OCc1ccccc1 [I-19A]	> 10
CNC(=O)[C@@H](NC(=O)[C@H]1CN(C(=O)c2cnn(CC3CCNCC3)c2)CC12CN(C(=O)[C@H]1CC1(C)C)C2)[C@@H](C)OCc1ccccc1 [I-19B]	> 10
C[C@@H](OCc1ccccc1)[C@H](NC(=O)C1CN(C(=O)c2cnn(Cc3ccccc3)c2)CC12CN(C(=O)[C@H]1CC1(C)C)C2)C(=O)NCC#CCO (stereo partly drawn) [I-20]	> 10
C[C@@H](OCc1ccccc1)C(NC(=O)C1CN(C(=O)c2cnn(Cc3ccccc3)c2)CC12CN(C(=O)[C@H]1CC1(C)C)C2)C(=O)NCCOCCOCCO (stereo partly drawn) [I-21]	> 10
C[C@@H]1C[C@H](C)CN(C(=O)[C@@H](NC(=O)C2CN(C(=O)c3cnn(Cc4ccccc4)c3)CC23CN(C(=O)[C@H]2CC2(C)C)C3)[C@@H](C)OCc2ccccc2)C1 (stereo partly drawn) [I-22]	0.5 to 5
CNC(=O)[C@@H](NC(=O)[C@@H]1CN(C(=O)c2cnn(CC3CCN(C)CC3)c2)CC12CN(C(=O)[C@H]1CC1(C)C)C2)[C@@H](C)OCc1ccccc1 [I-23A]	> 10
CNC(=O)[C@@H](NC(=O)[C@H]1CN(C(=O)c2cnn(CC3CCN(C)CC3)c2)CC12CN(C(=O)[C@H]1CC1(C)C)C2)[C@@H](C)OCc1ccccc1 [I-23B]	> 10
CNC(=O)[C@@H](NC(=O)[C@@H]1CN(C(=O)c2cncs2)CC12CN(C(=O)[C@H]1CC1(C)C)C2)[C@@H](C)OCc1ccccc1 [I-24A, (S)—N-((2S,3R)-3-(benzyloxy)-1-(methylamino)-1-oxobutan-2-yl)-2-((S)-2,2-dimethylcyclopropane-1-carbonyl)-6-(thiazole-5-carbonyl)-2,6-diazaspiro[3.4]octane-8-carboxamide]	> 10
CNC(=O)[C@@H](NC(=O)[C@H]1CN(C(=O)c2cncs2)CC12CN(C(=O)[C@H]1CC1(C)C)C2)[C@@H](C)OCc1ccccc1 [I-24B]	> 10
CNC(=O)[C@@H](NC(=O)[C@@H]1CN(C(=O)c2cnn(Cc3ccccc3)c2)CC12CN(C(=O)Cc1ccccc1)C2)[C@@H](C)OCc1ccccc1 [I-25A, (S)-6-(1-benzyl-1H-pyrazole-4-carbonyl)-N-((2S,3R)-3-(benzyloxy)-1-(methylamino)-1-oxobutan-2-yl)-2-(2-phenylacetyl)-2,6-diazaspiro[3.4]octane-8-carboxamide]	> 10
CNC(=O)[C@@H](NC(=O)[C@H]1CN(C(=O)c2cnn(Cc3ccccc3)c2)CC12CN(C(=O)Cc1ccccc1)C2)[C@@H](C)OCc1ccccc1 [I-25B]	> 10
CNC(=O)[C@@H](NC(=O)[C@@H]1CN(C(=O)c2cnn(Cc3ccccc3)c2)CC12CN(C(=O)c1ccccc1)C2)[C@@H](C)OCc1ccccc1 [I-26A]	> 10
CNC(=O)[C@@H](NC(=O)[C@H]1CN(C(=O)c2cnn(Cc3ccccc3)c2)CC12CN(C(=O)c1ccccc1)C2)[C@@H](C)OCc1ccccc1 [I-26B]	> 10

Compound	IC50 [µM]
CNC(=O)[C@@H](NC(=O)[C@@H]1CN(C(=O)c2cnn(Cc3ccccc3)c2)CC12CN(C(=O)CC1CCC1)C2)[C@@H](C)OCc1ccccc1 [I-27A]	> 10
CNC(=O)[C@@H](NC(=O)[C@H]1CN(C(=O)c2cnn(Cc3ccccc3)c2)CC12CN(C(=O)CC1CCC1)C2)[C@@H](C)OCc1ccccc1 [I-27B]	> 10
C[C@@H](OCc1ccccc1)[C@H](NC(=O)C1CN(C(=O)c2cnn(Cc3ccccc3)c2)CC12CN(C(=O)[C@H]1CC1(C)C)C2)C(=O)NCC#CCN (stereo partly drawn) [I-28]	> 10
C[C@@H](OCc1ccccc1)[C@H](NC(=O)C1CN(C(=O)c2cnn(Cc3ccccc3)c2)CC12CN(C(=O)[C@H]1CC1(C)C)C2)C(=O)NCCC(=O)O (stereo partly drawn) [I-29]	> 10
C[C@@H](OCc1ccccc1)[C@H](NC(=O)C1CN(C(=O)c2cnn(Cc3ccccc3)c2)CC12CN(C(=O)[C@H]1CC1(C)C)C2)C(=O)NCCO (stereo partly drawn) [I-30]	> 10
C[C@@H](OCc1ccccc1)[C@H](NC(=O)C1CN(C(=O)c2cnn(Cc3ccccc3)c2)CC12CN(C(=O)[C@H]1CC1(C)C)C2)C(=O)NCCN (stereo partly drawn) [I-31]	> 10
C[C@@H](OCc1ccccc1)[C@H](NC(=O)C1CN(C(=O)c2cnn(Cc3ccccc3)c2)CC12CN(C(=O)[C@H]1CC1(C)C)C2)C(=O)N1CCNCC1 (stereo partly drawn) [I-32]	> 10
CNC(=O)[C@@H](NC(=O)[C@@H]1CN(C(=O)c2cnn(C)c2)CC12CN(C(=O)[C@H]1CC1(C)C)C2)[C@@H](C)OCc1ccccc1 [I-33A]	> 10
CNC(=O)[C@@H](NC(=O)[C@H]1CN(C(=O)c2cnn(C)c2)CC12CN(C(=O)[C@H]1CC1(C)C)C2)[C@@H](C)OCc1ccccc1 [I-33B]	> 10
CNC(=O)[C@@H](NC(=O)[C@@H]1CN(C(=O)C2CCOCC2)CC12CN(C(=O)[C@H]1CC1(C)C)C2)[C@@H](C)OCc1ccccc1 [I-38A]	> 10
CNC(=O)[C@@H](NC(=O)[C@H]1CN(C(=O)C2CCOCC2)CC12CN(C(=O)[C@H]1CC1(C)C)C2)[C@@H](C)OCc1ccccc1 [I-38B]	> 10
CNC(=O)[C@@H](NC(=O)[C@H]1CN(C(=O)c2cnco2)CC12CN(C(=O)[C@H]1CC1(C)C)C2)[C@@H](C)OCc1ccccc1 [I-39B]	> 10
CNC(=O)[C@@H](NC(=O)[C@@H]1CN(Cc2ccccn2)CC12CN(C(=O)[C@H]1CC1(C)C)C2)[C@@H](C)OCc1ccccc1 [I-40A]	> 10
CNC(=O)[C@@H](NC(=O)[C@H]1CN(Cc2ccccn2)CC12CN(C(=O)[C@H]1CC1(C)C)C2)[C@@H](C)OCc1ccccc1 [I-40B]	> 10
CNC(=O)[C@@H](NC(=O)[C@@H]1CN(C(=O)c2cn[nH]c2)CC12CN(C(=O)CC1CC1)C2)[C@@H](C)OCc1ccccc1 [I-41A, (S)—N-((2S,3R)-3-(benzyloxy)-1-(methylamino)-1-oxobutan-2-yl)-2-(2-cyclopropylacetyl)-6-(1H-pyrazole-4-carbonyl)-2,6-diazaspiro[3.4]octane-8-carboxamide]	> 10
CNC(=O)[C@@H](NC(=O)[C@H]1CN(C(=O)c2cn[nH]c2)CC12CN(C(=O)CC1CC1)C2)[C@@H](C)OCc1ccccc1 [I-41B]	> 10
CNC(=O)[C@@H](NC(=O)[C@@H]1CN(C(=O)c2cccnc2)CC12CN(C(=O)[C@H]1CC1(C)C)C2)[C@@H](C)OCc1ccccc1 [I-42A]	> 10
CNC(=O)[C@@H](NC(=O)[C@H]1CN(C(=O)c2cccnc2)CC12CN(C(=O)[C@H]1CC1(C)C)C2)[C@@H](C)OCc1ccccc1 [I-42B]	> 10
CNC(=O)[C@@H](NC(=O)[C@@H]1CN(C(=O)c2cnn(CC(F)(F)F)c2)CC12CN(C(=O)CC1CC1)C2)[C@@H](C)OCc1ccccc1 [I-43A]	> 10
CNC(=O)[C@@H](NC(=O)[C@H]1CN(C(=O)c2cnn(CC(F)(F)F)c2)CC12CN(C(=O)CC1CC1)C2)[C@@H](C)OCc1ccccc1 [I-43B]	> 10
CNC(=O)[C@@H](NC(=O)[C@@H]1CN(C(=O)c2cnc[nH]2)CC12CN(C(=O)[C@H]1CC1(C)C)C2)[C@@H](C)OCc1ccccc1 [I-44A]	> 10
